The results in this text go back to US7105521B2, “Eugenosedin-A based pharmacoligical agents” (Syn-Tech Chem & Pharm Co., Ltd., priority 2003, dated 2006).

For one assay, the system named is α1 receptors. Briefly: Receptor binding, [3H]prazosin, rat cortex. Also noted: species or system Wistar rat. As to the method: (§1) Drugs and chemicals. […] Eugenosedin-A synthesized in this laboratory was solvated in 50% absolute alcohol, 10% propylene glycol and further diluted with distilled water. All of the [^3H] ligand was purchased from New England Nuclear Corp. (Boston, Mass., U.S.A.).
(§2) Receptor binding studies. […] The homogenate was pressure filtered through muslin. Filtrate was centrifuged at 1000 g for 10 min. Supernatant was centrifuged at 10,000 g for 12 min at 4° C. The second supernatant was centrifuged at 30,000 g for 15 min at 4° C. The final pellet was re-suspended in assay buffer (75 mM Tris HCl, 25 mM MgCl2, pH 7.4). Protein content was determined by Bradford's method. Radioligand agents and membranes (200–300 μg) were incubated for 60 min at 25° C. with or without the addition of nonspecific binding agents, in a 75 mM Tris HCl buffer with 25 mM MgCl2, to make a final volume of 500 μl. In competitive-binding experiments, the competing agent was added directly to the incubation mixture. Incubation was terminated by addition of 1 ml of ice-cold assay buffer followed by immediate filtration through Whatman GF/C glass fiber filters supported on a 12-port filter manifold (Millipore). The filters were immediately washed 3 times with 5 ml of ice-cold assay buffer and dried in an oven at 60° C. for 2 hours before adding 5 ml of Triton-toluene-based scintillation fluid. Membrane-bound radioligand trapped in the filters was counted in a Beckman LS6500 scintillation system (Fullerton, Calif., U.S.A) with an efficiency of 45%. In each experiment, nonspecifically bound radioligand agents were determined by incubating membrane protein. Specific binding for each sample was obtained by deducting this value from the total binding of radioligand agents.

In the next assay the test system is α2 receptors. Briefly: Receptor binding, [3H]yohimbine, rat cortex. Further details: species or system Wistar rat. As to the method:
as §1, §2

The target in the next assay is 5-HT2A receptor (Rattus norvegicus, UniProt P14842). Kind of assay: Receptor binding, [3H]ketanserin, rat cortex. Also noted: from tissue; host or cells: Wistar rat cortex membranes; species or system Wistar rat. The following applies: [3H]ketanserin, rat cortex. As to the method:
as §1, §2

For a further assay, the system named is TNF-α. Briefly: Plasma cytokine immunoreactivity after LPS: TNF-α. The class given is in vivo, Wistar rats. As to the method:
(§3) Plasma cytokine immunoreactivity and blood glucose. Blood was collected from venous cannula, injected into ice-cold heparinized Eppendorf tubes and centrifuged at 1500 rpm for 10 min at 4° C. Plasma supernatant was stored at −70° C. until analyzed. Solid phase enzyme immunoassay that specifically detects murine IL-1β, IL-6, IFN-γ and TNF-α was used with a detection limit of >10 pg/ml (Endogen, U.S.A). Pretreatment with eugenosedin-A and other agents was performed 15 minutes before intravenous injection of LPS. Blood was collected from venous cannula. Blood glucose was measured with a glucose test strip (Glucotide, Bayer, U.S.A) at 1, 3 and 5 hours.

A further assay in a line: Blood glucose after LPS. The conditions noted are these: for initial hyperglycemic response to LPS: blood glucose at 1 and 3 hours after LPS; for hypoglycemic response to LPS: blood glucose at 5 hours after LPS. The class given is in vivo, Wistar rats. As to the method:
as §3

A further assay has as its system IL-1β. Kind of assay: Plasma cytokine immunoreactivity after LPS: IL-1β. The conditions noted are these: 3 hours after LPS 10 mg kg^−1 i.v.; pretreatment (eugenosedin-A 1 mg kg^−1 i.v.). The class given is in vivo, Wistar rats. As to the method:
as §3

The next assay in a line: LPS-induced hypotension. The conditions noted are these: LPS 10 mg kg^−1 i.v.; for LPS-induced hypotension: 15 mg kg^−1 i.v.; for development of hypotension after LPS injection and normalization of BP: i.v. pretreatment; for second prolonged hypotensive phase after LPS: pretreatment 0.5 and 1 mg kg^−1 i.v. The class given is in vivo, Wistar rats. Here is the method: Intravenous injection. The experiments were carried out as previously described (Wu B N. et al., Biochem. Pharmacol., 48:101–109, 1994). In brief, Wistar rats weighing 250–300 grams were anesthetized with pentobarbital sodium (50 mg kg^−1, i.p.). Following tracheal cannulation, systemic arterial BP and HR were recorded from the femoral artery by a pressure transducer (model P10EZ; Spectramed, Oxnard, Calif., U.S.A.) connected to a recorder (GOULD, Valley View, Ohio, Model P50). Body temperature was maintained at 37° C. by an electric heating pad. A femoral vein was cannulated for intravenous injection of drugs and LPS (10 mg kg^−1).

The next assay deals with IFN-γ. Kind of assay: Plasma cytokine immunoreactivity after LPS: IFN-γ. The conditions noted are these: 1 hour after LPS administration. The class given is in vivo, Wistar rats. As to the method: as §3
A short description of assay [1]: Micro-injection in NTS: BP and HR. Type of assay: in vivo, rats. The conditions noted are these: for pressor response and HR: NTS micro-injection, 0.03, 0.3 μmol, within 30 minutes after injection. An excerpt: Micro-injection in NTS. Rats were anesthetized and placed in a David-Kopf stereotaxic instrument. The cerebellum was exposed after removing the skin and occipital bone. […] At the end of experiments, the animals were sacrificed. The brain was removed and sectioned for histological confirmation of the drug application site.

Another assay deals with α2-adrenoceptor. Kind of assay: Intra-cisternal antagonism of clonidine-induced hypotension and bradycardia. The following applies: for hypotensive effect of clonidine: given 15 min before clonidine injection. The class given is in vivo, rats. As to the method:
(§4) Intra-cisternal injections. […] Briefly, rats weighing 250–300 g were anaesthetized with pentobarbital sodium (50 mg kg^−1, i.p.) and mounted in a David-Kopf stereotaxic instrument (Yeh J L. et al., Brain. Res. Bull., 30:641–648, 1993). The calvarium was exposed and a 1 mm diameter trephine hole was drilled 1.8 mm lateral to the coronary and 1.5 mm posterior to the sagittal sutures. A cannula (0.7 mm O.D.) connected to a Hamilton syringe (RN-705, 5051) by PE-50 was advanced 4.7 mm into the brain using the electrode carrier.

The nature of assay [2]: Intra-cisternal injections: mean arterial BP and HR. The class given is in vivo, rats. The conditions noted are these: for effect on mean arterial BP and HR: eugenosedin-A and trazodone 0.3, 0.03 μmol, yohimbine 0.03 μmol. As to the method: as §4
Assay [3] is described as follows: Peroxyl radical scavenging, B-phycoerythrin/AAPH. The class given is biochemical. As to the method:
The stoichiometric factors of the test compounds with hydrophilic peroxyl radicals were calculated by the equation as mentioned Ascorbic acid was used as a positive control.

The mark [4] stands for this setting: 3 hours after LPS 10 mg kg^−1 i.v., pretreatment (eugenosedin-A 1 mg kg^−1 i.v.).
The mark [5] stands for this setting: 5 hours after LPS 10 mg kg^−1 i.v., pretreatment.

5-HT2A receptor, sequence (P14842 whole entry): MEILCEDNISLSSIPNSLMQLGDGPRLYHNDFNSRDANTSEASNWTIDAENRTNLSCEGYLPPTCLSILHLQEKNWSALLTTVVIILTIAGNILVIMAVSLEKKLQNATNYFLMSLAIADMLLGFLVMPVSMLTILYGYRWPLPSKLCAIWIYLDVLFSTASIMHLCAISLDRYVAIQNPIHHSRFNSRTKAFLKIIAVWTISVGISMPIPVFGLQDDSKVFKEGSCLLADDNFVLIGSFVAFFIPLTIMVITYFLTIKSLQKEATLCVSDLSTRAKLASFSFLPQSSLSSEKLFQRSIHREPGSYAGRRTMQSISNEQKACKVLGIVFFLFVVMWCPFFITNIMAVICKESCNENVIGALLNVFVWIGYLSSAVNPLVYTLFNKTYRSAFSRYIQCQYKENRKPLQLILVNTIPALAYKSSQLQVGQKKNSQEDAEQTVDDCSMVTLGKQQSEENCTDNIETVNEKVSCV

Turning to `NCCc1c[nH]c2ccc(O)cc12` [Compound 5-HT, serotonin], in the assay with α1 receptors, the “binding affinity for α1 receptors” value is on record as “lower binding affinities for α1 receptors”; the “order of α1 receptor binding potency” value is “prazosin >ketanserin >eugenosedin-A >methylsergide, propranolol and 5-HT”. The “order of α2 receptor binding potency” value in the assay on α2 receptors is “prazosin >eugenosedin-A >ketanserin >methylsergide >propranolol and 5-HT”. For the same compound, the “order of potency on 5-HT2A receptors” value at 5-HT2A receptor is “ketanserin >methylsergide >eugenosedin-A >5-HT >propranolol >prazosin”.
On to `Cl.N=C(N)NN` [aminoguanidine, aminoguanidine HCl], for which the “LPS-induced increase in TNF-α” value in the assay on TNF-α (setting [4]) is listed as “significantly inhibited”. In addition, in the assay “Blood glucose after LPS”, the “initial hyperglycemic response to LPS” value is reported as “inhibited the initial hyperglycemic response to LPS” and the “hypoglycemic response to LPS” value is “did not reverse the hypoglycemic response”. Further, in the assay with IL-1β, the “LPS-induced increase in IL-1β” value is given as “significantly inhibited”. In “LPS-induced hypotension”, the LPS-induced hypotension result is “inhibited LPS-induced hypotension”.
In the case of `O=C1O[C@H]([C@@H](O)CO)C(O)=C1O` [ascorbic acid], the “LPS-induced increase in TNF-α” value in the assay with TNF-α (setting [4]) is given as “significantly inhibited”. For the same compound, in the assay “Blood glucose after LPS”, the “initial hyperglycemic response to LPS” value is given as “inhibited the initial hyperglycemic response to LPS” and the “hypoglycemic response to LPS” value was “did not reverse the hypoglycemic response”. Moreover, the “LPS-induced production of IFN-γ” value with IFN-γ is listed as “insignificantly enhanced”. The “LPS-induced increase in IL-1β” value with IL-1β is “significantly inhibited”. In addition, the LPS-induced hypotension result in the assay “LPS-induced hypotension” is on record as “inhibited LPS-induced hypotension”.
As to `CNCCC(Oc1ccc(C(F)(F)F)cc1)c1ccccc1` (stereo not shown) [fluoxetine], the “pressor response and HR” value in [1] was “mild, but significant, pressor responses and increased the HR”.
For the compound `O=C(c1ccc(F)cc1)C1CCN(CCn2c(=O)[nH]c3ccccc3c2=O)CC1` [ketanserin], in the assay on α1 receptors, the “order of α1 receptor binding potency” value is “prazosin >ketanserin >eugenosedin-A >methylsergide, propranolol and 5-HT”. In addition, in the assay with α2 receptors, the “binding affinity for α2-adrenoceptors” value is given as “had binding affinities for α2-adrenoceptors”; the “order of α2 receptor binding potency” value was “prazosin >eugenosedin-A >ketanserin >methylsergide >propranolol and 5-HT”. Further, the “order of potency on 5-HT2A receptors” value on 5-HT2A receptor is on record as “ketanserin >methylsergide >eugenosedin-A >5-HT >propranolol >prazosin”.
For the compound `CC[C@@H](CO)NC(=O)[C@@H]1C=C2c3cccc4c3c(cn4C)C[C@H]2N(C)C1` [methysergide], in the assay on α1 receptors, the “binding affinity for α1 receptors” value is “lower binding affinities for α1 receptors”; the “order of α1 receptor binding potency” value was “prazosin >ketanserin >eugenosedin-A >methylsergide, propranolol and 5-HT”. Moreover, in the assay on α2 receptors, the “binding affinity for α2-adrenoceptors” value is given as “had binding affinities for α2-adrenoceptors”; the “order of α2 receptor binding potency” value is “prazosin >eugenosedin-A >ketanserin >methylsergide >propranolol and 5-HT”.
On to `CC(C)NCC(O)COc1cccc2ccccc12` (stereo not shown) [propranolol], for which the “order of α1 receptor binding potency” value in the assay on α1 receptors was “prazosin >ketanserin >eugenosedin-A >methylsergide, propranolol and 5-HT”. For the same compound, in the assay with α2 receptors, the “order of α2 receptor binding potency” value was “prazosin >eugenosedin-A >ketanserin >methylsergide >propranolol and 5-HT”.
Regarding `O=c1n(CCCN2CCN(c3cccc(Cl)c3)CC2)nc2ccccn12` [trazodone], the “LPS-induced increase in TNF-α” value was “significantly inhibited” in the assay on TNF-α (setting [4]) and “significantly reduced” in the assay with TNF-α (setting [5]). The “pressor response and HR” value in assay [1] is “mild, but significant, pressor responses and increased the HR”. Further, the “LPS-induced increase in IL-1β” value in the assay with IL-1β is listed as “significantly inhibited”. For the same compound, in “LPS-induced hypotension”, the “development of hypotension after LPS injection and normalization of BP” value was “normalized BP within 5 hours”. The results for the “first immediate hypotensive phase after LPS” value in “LPS-induced hypotension” (pretreatment 0.5 mg kg^−1 i.v.) and in “LPS-induced hypotension” (pretreatment 1 mg kg^−1 i.v.) were “not affected” and “attenuated it”, respectively. The “second prolonged hypotensive phase after LPS” value in “LPS-induced hypotension” was “significantly reduced”. Further, the “hypotensive effect of clonidine” value in the assay with α2-adrenoceptor was “antagonized the hypotensive effect of clonidine”. Moreover, the “effect on mean arterial BP and HR” value in assay [2] was “increased mean arterial BP and HR”. Moreover, the “scavenging of AAPH-derived peroxyl radicals (B-phycoerythrin fluorescence, lag time)” value in assay [3] is “did not scavenge peroxyl radicals”.
`COC(=O)[C@@H]1[C@H]2C[C@H]3c4[nH]c5ccccc5c4CCN3C[C@@H]2CC[C@@H]1O` [yohimbine]: the “LPS-induced increase in TNF-α” value in the assay on TNF-α (setting [4]) was “significantly inhibited”. The “LPS-induced increase in TNF-α” value with TNF-α (setting [5]) is “significantly reduced”. Also, in [1] (NTS micro-injection, 0.03 μmol), the HR increase result is on record as “up to 78 bpm” and the pressor response entry is “up to 13 mmHg”. In addition, the “LPS-induced production of IFN-γ” value with IFN-γ is on record as “insignificantly enhanced”. In addition, the “LPS-induced increase in IL-1β” value in the assay with IL-1β is reported as “significantly inhibited”. Further, in the assay “LPS-induced hypotension”, the “development of hypotension after LPS injection and normalization of BP” value is given as “normalized BP within 5 hours”; the “second prolonged hypotensive phase after LPS” value is listed as “significantly reduced”. Also, in the assay “LPS-induced hypotension” (pretreatment 0.5 mg kg^−1 i.v.), the “first immediate hypotensive phase after LPS” value is on record as “not affected”. Moreover, the “first immediate hypotensive phase after LPS” value in “LPS-induced hypotension” (pretreatment 1 mg kg^−1 i.v.) is “attenuated it”. For the same compound, the “hypotensive effect of clonidine” value with α2-adrenoceptor is listed as “antagonized the hypotensive effect of clonidine”. Moreover, the clonidine-induced bradycardia result in the assay with α2-adrenoceptor (low dose, 0.03 μmol) was “did not inhibit clonidine-induced bradycardia”. Further, in assay [2] (0.03 μmol), the “increase of HR” value is on record as “up to 78 bpm” and the pressor response result is recorded as “up to 13 mmHg”. The “effect on mean arterial BP and HR” value in assay [2] is “increased mean arterial BP and HR”.
